# Reference: ChEMBL document CHEMBL5338820, “Discovery and Design of Novel Cyclic Peptides as Specific Inhibitors Targeting CCN2 and Disrupting CCN2/EGFR Interaction for Kidney Fibrosis Treatment” (J Med Chem, 2023)
# Calls of active or inactive are those of the source. The rule behind the calls is not given here. Peptide text beside a SMILES is read from it.
# What was measured:
# [1] = target: T1, CCN family member 2 (Homo sapiens) (UniProt P29279); test: Inhibition of recombinant human CCN2 FL domain expressed in human […] cells assessed as reduction in COL1A1 synthesis at 20 uM incubated for 24 hrs by Western blotting assay; format: cell-based
# T1 sequence (whole entry): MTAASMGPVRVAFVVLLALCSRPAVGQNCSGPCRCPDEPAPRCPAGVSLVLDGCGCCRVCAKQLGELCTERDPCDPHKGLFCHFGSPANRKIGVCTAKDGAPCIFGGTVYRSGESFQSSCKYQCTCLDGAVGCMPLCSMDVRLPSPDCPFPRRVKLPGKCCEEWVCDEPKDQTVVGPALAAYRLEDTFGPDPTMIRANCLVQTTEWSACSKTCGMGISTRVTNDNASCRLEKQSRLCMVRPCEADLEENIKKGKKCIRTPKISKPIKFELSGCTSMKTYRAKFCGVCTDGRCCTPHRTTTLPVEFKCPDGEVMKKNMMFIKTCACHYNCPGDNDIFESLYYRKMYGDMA
# [2] = target: T1, CCN family member 2 (Homo sapiens); test: Inhibition of recombinant human CCN2 FL domain expressed in human HK-1 cells assessed as reduction in fibronectin synthesis at 20 uM incubated for 24 hrs by Western blotting assay; format: cell-based
# [3] = target: T1, CCN family member 2 (Homo sapiens); test: Inhibition of recombinant human CCN2 FL domain expressed in human […] cells assessed as reduction in COL1A1 synthesis at 4 to 100 uM incubated for 24 hrs by Western blotting assay; format: cell-based; details: dose 4-100 µM
# CCN2-EGFR (Homo sapiens) [4] = target: T2, CCN2-EGFR (Homo sapiens) (UniProt P00533+P29279); test: Inhibition of His-tagged full length human CCN2 FL domain/human Fc-tagged EGFR protein-protein interaction using TMB as chromogenic substrate at 100 uM incubated for 140 mins by microplate reader assay relative to control
# T2 sequence (P00533 whole entry, looked up, one chain of several, the tested form may be a part): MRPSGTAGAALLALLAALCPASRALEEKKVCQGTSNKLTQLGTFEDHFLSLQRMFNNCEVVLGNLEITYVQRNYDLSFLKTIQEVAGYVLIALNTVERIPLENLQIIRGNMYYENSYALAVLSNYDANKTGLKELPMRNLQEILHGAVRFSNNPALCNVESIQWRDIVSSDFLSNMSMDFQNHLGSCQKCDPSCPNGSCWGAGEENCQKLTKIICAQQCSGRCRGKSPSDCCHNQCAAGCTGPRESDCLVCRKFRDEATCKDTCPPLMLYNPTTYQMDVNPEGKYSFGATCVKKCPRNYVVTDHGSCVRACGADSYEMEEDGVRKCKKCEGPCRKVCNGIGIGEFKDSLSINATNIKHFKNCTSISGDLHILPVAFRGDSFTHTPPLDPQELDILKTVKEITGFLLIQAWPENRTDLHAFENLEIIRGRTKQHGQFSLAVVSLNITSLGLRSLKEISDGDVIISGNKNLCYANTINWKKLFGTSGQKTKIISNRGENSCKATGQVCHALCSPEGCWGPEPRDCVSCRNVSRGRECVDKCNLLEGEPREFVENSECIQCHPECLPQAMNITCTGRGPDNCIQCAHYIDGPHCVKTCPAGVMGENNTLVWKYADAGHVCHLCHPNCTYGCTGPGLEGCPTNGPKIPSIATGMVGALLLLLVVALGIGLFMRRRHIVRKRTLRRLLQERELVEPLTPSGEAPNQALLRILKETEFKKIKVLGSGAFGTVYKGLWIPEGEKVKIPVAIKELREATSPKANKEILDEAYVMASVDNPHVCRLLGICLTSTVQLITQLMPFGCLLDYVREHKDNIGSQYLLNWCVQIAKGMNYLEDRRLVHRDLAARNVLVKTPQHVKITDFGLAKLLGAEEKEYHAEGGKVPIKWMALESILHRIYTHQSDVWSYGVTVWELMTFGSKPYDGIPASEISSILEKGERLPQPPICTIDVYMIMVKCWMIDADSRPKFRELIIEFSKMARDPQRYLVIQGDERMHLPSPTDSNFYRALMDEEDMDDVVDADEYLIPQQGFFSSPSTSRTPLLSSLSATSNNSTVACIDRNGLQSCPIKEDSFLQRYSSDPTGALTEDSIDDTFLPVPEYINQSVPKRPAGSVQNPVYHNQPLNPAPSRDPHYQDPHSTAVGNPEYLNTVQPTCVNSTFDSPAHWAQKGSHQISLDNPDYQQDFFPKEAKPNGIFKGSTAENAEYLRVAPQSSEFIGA
# CCN2-EGFR (Homo sapiens) [5] = target: T2, CCN2-EGFR (Homo sapiens); test: Inhibition of His-tagged full length human CCN2 CT domain/human Fc-tagged EGFR protein-protein interaction using TMB as chromogenic substrate at 100 uM incubated for 140 mins by microplate reader assay relative to control
# [6] = target: T1, CCN family member 2 (Homo sapiens); test: Inhibition of recombinant human CCN2 FL domain expressed in human […] cells assessed as reduction in fibronectin synthesis at 4 to 100 uM incubated for 24 hrs by Western blotting assay; format: cell-based; details: dose 4-100 µM
# [7] = target: T1, CCN family member 2 (Homo sapiens); test: Inhibition of recombinant human CCN2 FL domain expressed in human […] cells assessed as reduction in STAT3 phosphorylation at 100 uM incubated for 24 hrs by Western blotting assay; format: cell-based
# [8] = target: T1, CCN family member 2 (Homo sapiens); test: Inhibition of recombinant human CCN2 CT domain expressed in human […] cells assessed as reduction in fibronectin synthesis at 100 uM incubated for 24 hrs by Western blotting assay; format: cell-based
# [9] = target: T1, CCN family member 2 (Homo sapiens); test: Inhibition of recombinant human CCN2 CT domain expressed in human […] cells assessed as reduction in COL1A1 synthesis at 100 uM incubated for 24 hrs by Western blotting assay; format: cell-based
# CCN family member 2 = target: T3, CCN family member 2 (Homo sapiens, UniProt P29279); test: Binding affinity to His-tagged full length human CCN2 CT domain assessed as dissociation constant by isothermal titration calorimetry assay
# T3 sequence (P29279 whole entry): T1 sequence (whole entry)
# [10] = Cmax in Sprague-Dawley rat at 1 mg/kg,SC measured upto 48 hrs by LC-MS/MS analysis; format: ADME, organism-based; design: time < 48 hrs, dose 1 mg/kg, route sc; details: in vivo
# [11] = Tmax in Sprague-Dawley rat at 1 mg/kg,SC measured upto 48 hrs by LC-MS/MS analysis; format: ADME, organism-based; details: in vivo
# [12] = Half life in Sprague-Dawley rat at 1 mg/kg,SC measured upto 48 hrs by LC-MS/MS analysis; format: ADME, organism-based; details: in vivo
# [13] = AUC (0-t) in Sprague-Dawley rat at 1 mg/kg,SC measured upto 48 hrs by LC-MS/MS analysis; format: ADME, organism-based; design: time < 48 hrs, dose 1 mg/kg, route sc; details: in vivo
# [14] = Toxicity in Unilateral ureteric obstruction C57BL/6J mouse model assessed as change in hair color at 50 microg/kg,ip administrated for 14 days; details: in vivo, 0.05 mg/kg, 336 h, dose 50 µg/kg, time 14 day
# [15] = Toxicity in Unilateral ureteric obstruction C57BL/6J mouse model assessed as change in behaviour at 50 microg/kg,ip administrated for 14 days; details: in vivo, 0.05 mg/kg, 336 h, dose 50 µg/kg, time 14 day
# [16] = Toxicity in Unilateral ureteric obstruction C57BL/6J mouse model assessed as change in food consumption at 50 microg/kg,ip administrated for 14 days; details: in vivo, 0.05 mg/kg, 336 h, dose 50 µg/kg, time 14 day
# [17] = Toxicity in Unilateral ureteric obstruction C57BL/6J mouse model assessed as change in body weight at 50 microg/kg,ip administrated for 14 days; details: in vivo, 0.05 mg/kg, 336 h, dose 50 µg/kg, time 14 day
# Mus musculus [18] = test: Antifibrotic activity against Unilateral ureteric obstruction ligation induced C57BL/6J mouse kidney fibrosis model assessed as reduction of renal tubular injury at 50 microg/kg,ip administrated for 14 days by hematoxylin and eosin staining based analysis; format: functional, organism-based; details: dose 50.0 µg/kg, time 14.0 day
# Mus musculus [19] = test: Antifibrotic activity against Unilateral ureteric obstruction ligation induced C57BL/6J mouse kidney fibrosis model assessed as reduction of inflammatory infiltration at 50 microg/kg,ip administrated for 14 days by hematoxylin and eosin staining based analysis; format: functional, organism-based; details: dose 50.0 µg/kg, time 14.0 day
# Mus musculus [20] = test: Antifibrotic activity against Unilateral ureteric obstruction ligation induced C57BL/6J mouse kidney fibrosis model assessed as reduction of collagen formation at 50 microg/kg,ip administrated for 14 days by […] staining based analysis; format: functional, organism-based; details: dose 50.0 µg/kg, time 14.0 day
# Mus musculus [21] = test: Antifibrotic activity against Unilateral ureteric obstruction ligation induced C57BL/6J mouse kidney fibrosis model assessed as downregulation of EGFR phosphorylation at 50 microg/kg,ip administrated for 14 days by Western blotting analysis; format: functional, organism-based; details: dose 50.0 µg/kg, time 14.0 day
# Mus musculus [22] = test: Antifibrotic activity against Unilateral ureteric obstruction ligation induced C57BL/6J mouse kidney fibrosis model assessed as downregulation of STAT3 phosphorylation at 50 microg/kg,ip administrated for 14 days by Western blotting analysis; format: functional, organism-based; details: dose 50.0 µg/kg, time 14.0 day
# Mus musculus [23] = test: Antifibrotic activity against Unilateral ureteric obstruction ligation induced C57BL/6J mouse kidney fibrosis model assessed as downregulation of fibronectin synthesis at 50 microg/kg,ip administrated for 14 days by Western blotting analysis; format: functional, organism-based; details: dose 50.0 µg/kg, time 14.0 day
# Mus musculus [24] = test: Antifibrotic activity against Unilateral ureteric obstruction ligation induced C57BL/6J mouse kidney fibrosis model assessed as downregulation of COL1A1 synthesis at 50 microg/kg,ip administrated for 14 days by Western blotting analysis; format: functional, organism-based; details: dose 50.0 µg/kg, time 14.0 day
smiles,measurement,setting,value
C[C@@H](O)[C@@H]1NC(=O)[C@H](Cc2c[nH]c3ccccc23)NC(=O)[C@@H]2CCCN2C(=O)[C@H](CCCNC(=N)N)NC(=O)[C@H](Cc2c[nH]cn2)NC(=O)[C@H](CCCCN)NC(=O)[C@H]([C@@H](C)O)NC1=O (cyclo(HRPWTTK)),inhibition,[1],Active
same,inhibition,[2],Active
same,inhibition,[3],Dose-Dependent Effect
same,inhibition,CCN2-EGFR (Homo sapiens) [4],63.8%
same,inhibition,CCN2-EGFR (Homo sapiens) [5],76.7%
same,inhibition,[6],Dose-Dependent Effect
same,inhibition,[7],Active
same,inhibition,[8],Active
same,inhibition,[9],Active
same,Kd,CCN family member 2,3.1 µM
same,Cmax,[10],1060 ng/mL
same,Tmax,[11],60 min
same,half-life,[12],54 min
same,AUC(0-t) at 48 h,[13],3030 ng·h/mL
same,Activity,[14],Non-Toxic
same,Activity,[15],Non-Toxic
same,Activity,[16],Non-Toxic
same,Activity,[17],Non-Toxic
same,Activity,Mus musculus [18],Active
same,Activity,Mus musculus [19],Active
same,Activity,Mus musculus [20],Active
same,Activity,Mus musculus [21],Active
same,Activity,Mus musculus [22],Active
same,Activity,Mus musculus [23],Active
same,Activity,Mus musculus [24],Active
